Results taken from US8557864B2, “Agent having neurotrophic factor-like activity” (Nagoya Industrial Science Research Institute, priority 2007, dated 2013).

Assays:
[1] = system: mice under chronic mild stress; experiment: Elevated plus maze test after completion of stress; type: in vivo
Method: In this test, an anxiety level can be evaluated from the time for being the open arm, and a behavior amount can be evaluated from the number of times of entering the closed arm. From the evaluations, when a mouse has an anxiety symptom (condition), the time for being in the open arm […], and thus, a level of the anxiety symptom (condition) can be evaluated from the length of the time. FIGS. 8 to 11 show the results.
Example 2 is a behavior test in which the compound 8 was administered to a mouse as well as stress was applied and a suppression effect of the compound 8 on depressive and anxiety symptoms of the mouse was examined. On the other hand, the present example is a behavior test in which only stress was applied for 3 weeks without administering the compound 8 and stress was completed and a therapeutic effect of the compound 8 on depressive and anxiety symptoms of a mouse after removing stress was examined. Stress was applied to a mouse in the same manner as in Example 2. For behavior tests of mice, the burying the glass-marbles test, the tail suspension test and the elevated plus maze test were performed respectively in the same manners as in Example 2 on groups without administering the compound 8 immediately after completion of stress for 3 weeks and groups without administering the compound 8 with no stress from the start (hereinafter referred to as “non-administration groups after completion of stress”); a group administered with the compound 8 for 1 week after completion of stress and a group administered with the compound 8 for 1 week in the same manner as the former group with no stress from the start (hereinafter referred to as “1 week-administration groups after completion of stress”); and a group administered with the compound 8 for 2 weeks after completion of stress and a group administered with the compound 8 for 2 weeks in the same manner as the former group with no stress from the start (hereinafter referred to as “2 week-administration groups after completion of stress”). […]

[2] = system: mice under chronic mild stress; experiment: Tail suspension test, compound given at the same time as stress; type: in vivo; conditions: 20, 100 and 500 μg/kg intraperitoneally once per day with stress; stressed 3 week- and 1 week-administration groups
Method: Mice under established chronic mild stress (hereinafter referred to as “stress”) were used for a depression and anxiety disorder-like model animal. Stress was applied as follows. 7-week-old male ddY strain mice fed in one cage for 4 mice were used and first subjected to forced swimming for 15 minutes. Then, the mice were fed in a sloped cage for 2 days, and then rested in a normal cage for 1 day. Then, the mice were fed in a dirt cage moisturized with 200 mL of water for 1 day and then rested in a normal cage for 1 day. Then, the mice were fed in a rotational cage that rotated at 180 rpm for 1 day, and then rested in a normal cage for 1 day. […] For 0 μg/kg administration examples of controls, a phosphoric acid buffer containing 0.1% DMSO (controls were expressed as “PBS” or “0 μg/kg” in the figure shown below) was administered in an amount of 0.25 mL to each of a stressed example and a non-stressed example. […]
A site of 1 cm from the tip of the tail of a mouse was grasped by a hand, being apart from a floor from 10 cm, and an immobility time in suspension for 6 minutes was measured for 2 hours. Since the immobility time prolongs when the mouse has a depressive symptom (condition), a level of the depressive symptom (condition) can be evaluated from the length of the immobility time. […]

CCCCCCC/C=C/C(=O)OCC [Compound 8, trans-2-decenoic acid ethyl ester]
no significant difference: time for being in open arm, stressed vs non-stressed example ([1]; 500 μg/kg, 1 week-administration groups after completion of stress) | number of times of entering closed arm (behavior amount) ([1]; 1 week- and 2 week-administration groups after completion of stress, vs controls (0 μg/kg) and stressed vs non-stressed) | time for being in open arm, stressed vs non-stressed example ([1]; all administration examples, 2 week-administration group after completion of stress) | immobility time, stressed vs non-stressed example [2]
